Where “and” joins values, the source holds several entries; their conditions need not be identical. Equal entries are not always repeated.
Molecular target: T1, human TAS2R1 (Homo sapiens, UniProt Q9NYW7)
T1 construct: expressed in transfected cells; host or cells: HEK293T-Gα16gust44
T1 sequence (Q9NYW7 1-299): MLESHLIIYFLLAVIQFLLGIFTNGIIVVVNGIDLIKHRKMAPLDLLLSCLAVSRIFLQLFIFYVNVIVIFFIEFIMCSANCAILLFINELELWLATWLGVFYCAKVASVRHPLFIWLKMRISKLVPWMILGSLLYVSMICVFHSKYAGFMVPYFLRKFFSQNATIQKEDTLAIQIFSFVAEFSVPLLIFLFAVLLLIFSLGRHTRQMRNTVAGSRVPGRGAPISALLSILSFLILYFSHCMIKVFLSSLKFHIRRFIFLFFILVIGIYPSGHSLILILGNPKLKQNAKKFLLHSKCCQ
Experiment: Calcium imaging assay (FLIPR), HEK293T-Gα16gust44 cells transfected with human TAS2R1
Type: cell-based
In short: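 Bile acids from DMSO stocks are applied to dye-loaded cells one day after transient receptor transfection, and calcium-dependent fluorescence is recorded. Maximum signal is standardized to basal and normalized to buffer-only wells, with empty-vector signal subtracted.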

For `C[C@H](CCC(=O)O)[C@H]1CC[C@H]2[C@@H]3[C@H](O)C[C@@H]4C[C@H](O)CC[C@]4(C)[C@H]3C[C@H](O)[C@]12C` [Cholic Acid, cholic acid], the “Efficacy = maximal amplitude (ΔF/F)” value (TAS2R1, bile acids, mean) was 0.1303, the “Efficacy (maximal amplitude ΔF/F), individual data points” value (TAS2R1, bile acids, single replicates, listed as CA) was 0.1237 and 0.1261 and 0.1411 and the RLU (Time 0 s) was 0 RLU. The RLU (Time 2.015 s) was -18.7915 RLU, the RLU (Time 4.015 s) was -20.7803 RLU and the RLU (Time 6.015 s) was -30.3104 RLU. For the same compound, the RLU (Time 8.015 s) was -41.5185 RLU, the RLU (Time 12.015 s) was -39.0663 RLU and the RLU (Time 14.015 s) was -19.7859 RLU. It also gave an RLU (Time 16.015 s) of -20.0825 RLU, an RLU (Time 18.015 s) of -33.1938 RLU and an RLU (Time 18.796 s) of -13.8993 RLU. The RLU (Time 20.796 s) was -32.113 RLU, the RLU (Time 22.796 s) was 0.5227 RLU and the RLU (Time 24.796 s) was 72.3168 RLU. For the same compound, the RLU (Time 26.796 s) was 179.01 RLU, the RLU (Time 28.796 s) was 273.224 RLU and the RLU (Time 30.796 s) was 414.499 RLU. For the same compound, the RLU (Time 32.796 s) was 487.46 RLU, the RLU (Time 34.796 s) was 561.258 RLU and the RLU (Time 36.796 s) was 600.729 RLU. The RLU (Time 38.796 s) was 652.414 RLU, the RLU (Time 40.796 s) was 646.063 RLU and the RLU (Time 42.796 s) was 688.029 RLU. It also gave an RLU (Time 44.796 s) of 718.237 RLU, an RLU (Time 46.796 s) of 709.989 RLU and an RLU (Time 48.796 s) of 747.058 RLU. The RLU (Time 50.796 s) was 725.497 RLU, the RLU (Time 52.796 s) was 721.254 RLU and the RLU (Time 54.796 s) was 750.511 RLU. For the same compound, the RLU (Time 56.796 s) was 763.129 RLU, the RLU (Time 58.796 s) was 754.05 RLU and the RLU (Time 60.796 s) was 736.769 RLU. For the same compound, the RLU (Time 62.796 s) was 752.117 RLU, the RLU (Time 64.796 s) was 729.251 RLU and the RLU (Time 66.796 s) was 754.307 RLU. For the same compound, the RLU (Time 68.796 s) was 748.849 RLU, the RLU (Time 70.796 s) was 729.014 RLU and the RLU (Time 72.796 s) was 724.252 RLU. The RLU (Time 74.796 s) was 721.996 RLU, the RLU (Time 76.796 s) was 719.984 RLU and the RLU (Time 78.796 s) was 701.138 RLU. For the same compound, the RLU (Time 80.796 s) was 695.956 RLU, the RLU (Time 82.796 s) was 687.252 RLU and the RLU (Time 84.796 s) was 702.818 RLU. For the same compound, the RLU (Time 86.796 s) was 660.013 RLU, the RLU (Time 88.796 s) was 675.614 RLU and the RLU (Time 90.796 s) was 671.255 RLU. For the same compound, the RLU (Time 92.796 s) was 645.369 RLU, the RLU (Time 94.796 s) was 658.13 RLU and the RLU (Time 96.796 s) was 614.664 RLU. For the same compound, the RLU (Time 98.796 s) was 601.791 RLU, the RLU (Time 100.796 s) was 605.799 RLU and the RLU (Time 102.796 s) was 574.755 RLU. The RLU (Time 104.796 s) was 579.697 RLU, the RLU (Time 106.796 s) was 554.874 RLU and the RLU (Time 108.796 s) was 536.028 RLU. For the same compound, the RLU (Time 110.796 s) was 503.66 RLU, the RLU (Time 112.796 s) was 530.288 RLU and the RLU (Time 114.796 s) was 510.693 RLU. The RLU (Time 116.796 s) was 515.676 RLU, the RLU (Time 118.796 s) was 477.82 RLU and the RLU (Time 120.796 s) was 483.731 RLU. It also gave an RLU (Time 122.796 s) of 479.051 RLU, an RLU (Time 124.796 s) of 471.711 RLU and an RLU (Time 126.796 s) of 440.735 RLU. For the same compound, the RLU (Time 128.796 s) was 427.776 RLU, the RLU (Time 130.796 s) was 428.214 RLU and the RLU (Time 132.796 s) was 399.927 RLU. It also gave an RLU (Time 134.796 s) of 369.335 RLU, an RLU (Time 136.796 s) of 379.68 RLU and an RLU (Time 137.562 s) of 368.206 RLU. It also gave an RLU (Time 143.562 s) of 326.335 RLU, an RLU (Time 149.562 s) of 297.638 RLU and an RLU (Time 155.562 s) of 268.743 RLU. For the same compound, the RLU (Time 161.562 s) was 228.213 RLU, the RLU (Time 167.562 s) was 217.461 RLU and the RLU (Time 173.562 s) was 182.798 RLU. It also gave an RLU (Time 179.562 s) of 176.247 RLU, an RLU (Time 185.562 s) of 110.643 RLU and an RLU (Time 191.562 s) of 119.586 RLU. It also gave an RLU (Time 197.562 s) of 108.976 RLU, an RLU (Time 203.562 s) of 106.514 RLU and an RLU (Time 209.562 s) of 78.0739 RLU. For the same compound, the RLU (Time 215.562 s) was 68.108 RLU, the RLU (Time 221.562 s) was 58.6538 RLU and the RLU (Time 227.562 s) was 6.904 RLU. The RLU (Time 233.562 s) was -20.3665 RLU, the RLU (Time 239.562 s) was 5.663 RLU and the RLU (Time 245.562 s) was 6.786 RLU. For the same compound, the RLU (Time 293.562 s) was -10.9022 RLU, the RLU (Time 299.562 s) was -34.1549 RLU and the RLU (calcium trace, sheet TAS2R1, Time 305.562 s) was -13.9937 RLU. For the same compound, the RLU (calcium trace, sheet TAS2R1, Time 311.562 s) was -29.8879 RLU, the RLU (calcium trace, sheet TAS2R1, Time 317.562 s) was -12.8001 RLU and the RLU (calcium trace, sheet TAS2R1, Time 323.562 s) was -27.2317 RLU. The RLU (calcium trace, sheet TAS2R1, Time 329.562 s) was -32.4678 RLU, the RLU (calcium trace, sheet TAS2R1, Time 335.562 s) was -20.5128 RLU and the RLU (calcium trace, sheet TAS2R1, Time 341.562 s) was -18.5874 RLU. It also gave an RLU (calcium trace, sheet TAS2R1, Time 347.562 s) of -51.1709 RLU, an RLU (calcium trace, sheet TAS2R1, Time 353.562 s) of -49.428 RLU and an RLU (calcium trace, sheet TAS2R1, Time 359.562 s) of -15.7961 RLU. For the same compound, the “Activation threshold concentration TAS2R1” value (lowest concentration with significantly increased fluorescence vs empty vector (p < 0.01)) was 100 µM and 100.00 µM.

Reference: paper PMC10247784, “Physiological activation of human and mouse bitter taste receptors by bile acids” (Communications Biology, 2023)
